The test system of experiment [1] is c-myc G-quadruplex (DNA, G4) TGAGGGTGGTGAGGGTGGGGAAGG
Briefly: fluorescence titration, plate reader. Particulars: 2 nM compound; site 1 of 2.

The test system of experiment [2] is c-myc mutant DNA (DNA, single strand) TGAAAATAATGAAAATAAAAAAGA
Briefly: fluorescence titration, plate reader. To be noted: 2 nM compound.

The subject of experiment [3] is tel22 G-quadruplex (DNA, G4) AGGGTTAGGGTTAGGGTTAGGG
Description: fluorescence titration, plate reader. To be noted: 2 nM compound.

The test system of experiment [4] is c-myc duplex (DNA, duplex) TGAGGGTGGTGAGGGTGGGGAAGG/CCTTCCCCACCCTCACCACCCTCA
Briefly: ITC. Particulars: K+ (50 mM KCl, 10 mM potassium phosphate); pH 7.0, 25 °C; ~10^4 fold lower affinity than c-myc G4.

Experiment [5] has as its system c-myc mutant DNA (DNA, single strand) TGAAAATAATGAAAATAAAAAAGA
Briefly: gel retardation, native PAGE. To be noted: K+ (50 mM KCl, 10 mM potassium phosphate); pH 7.0, 25 °C; 10 µM DNA; up to 100 µM compound.

Experiment [6] deals with c-myc duplex (DNA, duplex) TGAGGGTGGTGAGGGTGGGGAAGG/CCTTCCCCACCCTCACCACCCTCA
Briefly: fluorescence titration, plate reader. Particulars: 2 nM compound; site 1 of 2.

In experiment [7] the test system is c-myc G-quadruplex (DNA, G4) TGAGGGTGGTGAGGGTGGGGAAGG
Briefly: ITC. Particulars: K+ (50 mM KCl, 10 mM potassium phosphate); pH 7.0, 25 °C; site 1 of 2.

The test system of experiment [8] is c-kit21 G-quadruplex (DNA, G4) CGGGCGGGGCGCGAGGAAAA
Briefly: fluorescence titration, plate reader. Particulars: 2 nM compound; site 1 of 2.

The test system of experiment [9] is bcl-2 G-quadruplex (DNA, G4) AGGGGCGGGCGCGGGAGGAAGGGGGCGGGAGCGGGGCTG
Description: fluorescence titration, plate reader. Particulars: 2 nM compound; site 1 of 2.

Experiment [10] deals with c-myc mutant DNA (DNA, single strand) TGAAAATAATGAAAATAAAAAAGA
Briefly: ITC. To be noted: K+ (50 mM KCl, 10 mM potassium phosphate); pH 7.0, 25 °C; ~10^4 fold lower affinity than c-myc G4.

On to `Oc1ccccc1NCCNc1ccccc1O`, for which the Kd1 in experiment [1] was found to be 2.56 ± 0.02 µM.

Consider `O=S(=O)(NCCNS(=O)(=O)c1ccccc1)c1ccccc1`, for which the Kd1 in experiment [1] came to 0.002 ± 0.001 µM; in experiment [3] (site 1 of 2), 0.19 ± 0.02 µM; in experiment [6], 1.81 ± 0.09 µM; in experiment [8], 4.86 ± 0.02 µM; in experiment [9], 0.024 ± 0.009 µM. The molecule also had a Kd2 in experiment [2] of 0.195 ± 0.04 µM. Moreover, the binding result is reported as “weak” in experiment [4], “no” in experiment [5] and “weak” in [10]. Besides, the Ka1 in [7] is listed as 3.81 × 10^7 ± 0.01 M^-1.

Molecule `Cc1ccc(NC(=S)Nc2ccccc2)cc1` showed a Kd1 in [1] of 1.34 ± 0.13 µM.

In turn, `CC(CCN=Cc1ccccc1O)N=Cc1ccccc1O` (centres unmarked) came in with a Kd1 in [1] of 3.76 ± 0.03 µM.

For `CC(C)=NOC(=O)Nc1ccc(Cl)cc1`, the Kd1 turned out to be 0.010 ± 0.003 µM in experiment [1]; 0.023 ± 0.03 µM in experiment [2] (site 1 of 2); 0.559 ± 0.03 µM in experiment [6]; 1.71 ± 0.005 µM in [8]; 0.761 ± 0.01 µM in [9]. Also, the Kd2 in [3] (stronger of two sites, printed as Kd2 (Kd1 3.47)) amounted to 2.89 ± 0.03 µM. Moreover, the Ka1 in [7] is recorded as 3.34 × 10^5 ± 0.4 M^-1.

In turn, `CC(=NNC(=S)NN=C(C)c1ccccc1)c1ccccc1` gave a Kd1 in experiment [1] of 2.86 ± 0.03 µM.

As to `O=C(CC(=O)Nc1ccccc1)Nc1ccccc1`, the Kd1 in experiment [1] worked out at 4.61 ± 0.05 µM.

Regarding `O=C(/C=C/C=C/c1ccc2c(c1)OCO2)N1CCCCC1`, in experiment [7], the Ka1 is 4.56 × 10^5 ± 0.03 M^-1.

Values taken from PMC8617303 (2021).
